The assay concerns IFV A/PR/8/34. Nature of the assay: cytopathic effect (CPE) antiviral test in MDCK cells, IFV A/PR/8/34. Format: cell-based, influenza virus. The note with it: unidentified influenza virus, PR/8, MDCK, 120 h, read-out: EC50(IFV A/PR/8/34). (Cytopathic effects are the visible damage that an infection or toxin causes in cultured cells.)
On to `Cc1nnn(C(c2ccccc2)C2CCN(C(=O)c3cc(-c4nc5cc(-c6cnn(C)c6)ccc5o4)ccn3)CC2)n1` (racemic) [Compound 133, (R/S)-(4-(5-(1-methyl-1H-pyrazol-4-yl)benzo[d]oxazol-2-yl)pyridin-2-yl)(4-((5-methyl-2H-tetrazol-2-yl)(phenyl)methyl)piperidin-1-yl)methanone], for which the EC50 was 33 nM. Turning to `O=C(c1cc(-c2nc3cc(-c4cnn(C(F)(F)F)c4)ccc3o2)ccn1)N1CCN(C(c2ccccc2)c2nnn(C(F)F)n2)CC1` (racemic) [Compound 161, (R/S)-(4-((2-(difluoromethyl)-2H-tetrazol-5-yl)(phenyl)methyl)piperazin-1-yl)(4-(5-(1-(trifluoromethyl)-1H-pyrazol-4-yl)benzo[d]oxazol-2-yl)pyridin-2-yl)methanone], the EC50 stood at 20 nM. The same measure for `O=C(c1cc(-c2nc3cc(-c4cn(C(F)F)cn4)ccc3o2)ccn1)N1CCN(C(c2ccccc2)c2nnn(C(F)F)n2)CC1` (racemic) [Compound 170, (R/S)-(4-(5-(1-(difluoromethyl)-1H-imidazol-4-yl)benzo[d]oxazol-2-yl)pyridin-2-yl)(4-((2-(difluoromethyl)-2H-tetrazol-5-yl)(phenyl)methyl)piperazin-1-yl)methanone]: 7 nM; for `Cc1cn(-c2ccc3oc(-c4ccnc(C(=O)N5CCN(C(c6ccccc6)c6nnn(C(F)F)n6)CC5)c4)nc3c2)cn1` (racemic) [Compound 158, (R/S)-(4-((2-(difluoromethyl)-2H-tetrazol-5-yl)(phenyl)methyl)piperazin-1-yl)(4-(5-(4-methyl-1H-imidazol-1-yl)benzo[d]oxazol-2-yl)pyridin-2-yl)methanone]: 3 nM; for `Cn1nncc1-c1ccc2oc(-c3ccnc(C(=O)N4CCN(C(c5ccccc5)c5nnn(C(F)F)n5)CC4)c3)nc2c1` (racemic) [Compound 131, (R/S)-(4-((2-(difluoromethyl)-2H-tetrazol-5-yl)(phenyl)methyl)piperazin-1-yl)(4-(5-(1-methyl-1H-1,2,3-triazol-5-yl)benzo[d]oxazol-2-yl)pyridin-2-yl)methanone]: 12 nM. The same measure for `O=C(c1cc(-c2nc3cc(-c4cncn4C(F)F)ccc3o2)ccn1)N1CCN(C(c2ccccc2)c2nnn(C(F)F)n2)CC1` (racemic) [Compound 171, (R/S)-(4-(5-(1-(difluoromethyl)-1H-imidazol-5-yl)benzo[d]oxazol-2-yl)pyridin-2-yl)(4-((2-(difluoromethyl)-2H-tetrazol-5-yl)(phenyl)methyl)piperazin-1-yl)methanone]: 5 nM. As for `[2H]C([2H])([2H])C(C(=O)Nc1ccc2oc(-c3ccnc(C(=O)N4CCC(C(c5ccccc5)n5nnc(C)n5)CC4)c3)cc2c1)C([2H])([2H])[2H]` (racemic) [Compound 137, 3,3,3-trideuterio-N-[2-[2-[4-[(R/S)-(5-methyltetrazol-2-yl)-phenyl-methyl]piperidine-1-carbonyl]-4-pyridyl]benzofuran-5-yl]-2-(trideuteriomethyl)propanamide], the EC50 turned out to be 11 nM. `[2H]c1c([2H])c([2H])c([C@@H](C2CCN(C(=O)c3cc(-c4nc5cc(NC(=O)[C@@H]6C[C@@H]6F)ccc5o4)ccn3)CC2)n2nnc(C)n2)c([2H])c1[2H]` [Compound 205, (1S,2S)-2-fluoro-N-[2-[2-[4-[(R)-(5-methyltetrazol-2-yl)-(2,3,4,5,6-pentadeuteriophenyl)methyl]piperidine-1-carbonyl]-4-pyridyl]-1,3-benzoxazol-5-yl]cyclopropanecarboxamide]: the EC50 came to 5.5 nM.

Regarding `O=C(Nc1ccc2oc(-c3ccnc(C(=O)N4CCN(C(c5ccsc5)c5nnn(C(F)F)n5)CC4)c3)nc2c1)[C@@H]1C[C@@H]1F` (mixture of isomers) [Compound 122, (1S,2S)—N-(2-(2-(4-((R/S)-(2-(difluoromethyl)-2H-tetrazol-5-yl)(thiophen-3-yl)methyl)piperazine-1-carbonyl)pyridin-4-yl)benzo[d]oxazol-5-yl)-2-fluorocyclopropane-1-carboxamide], the EC50 is 19 nM.

As for `O=C(c1cc(-c2nc3ccc(NC(=O)C4(F)CC4)cc3o2)ccn1)N1CCN(C(c2ccccc2)c2nnn(C(F)F)n2)CC1` (racemic) [Compound 125, (R/S)—N-(2-(2-(4-((2-(difluoromethyl)-2H-tetrazol-5-yl)(phenyl)methyl)piperazine-1-carbonyl)pyridin-4-yl)benzo[d]oxazol-6-yl)-1-fluorocyclopropane-1-carboxamide], the EC50 came to 12 nM. Under `O=C(c1cc(-c2nc3cc(NC(=O)C4(F)CC4)ccc3o2)ccn1)N1CCN(C(c2ccccc2)c2nnn(C(F)F)n2)CC1` (racemic) [Compound 129] stands 12 nM.

On to `O=C(Nc1ccc2oc(-c3ccnc(C(=O)N4CCC(C(c5ccccc5)n5nnc(C(F)F)n5)CC4)c3)nc2c1)[C@@H]1C[C@@H]1F` (mixture of isomers) [Compound 138, (1S,2S)—N-(2-(2-(4-((R/S)-(5-(difluoromethyl)-2H-tetrazol-2-yl)(phenyl)methyl)piperidine-1-carbonyl)pyridin-4-yl)benzo[d]oxazol-5-yl)-2-fluorocyclopropanecarboxamide], for which the EC50 is 4 nM. With `CC(=O)OCc1nnn(C(c2ccccc2)C2CCN(C(=O)c3cc(-c4nc5cc(NC(=O)[C@@H]6C[C@@H]6F)ccc5o4)ccn3)CC2)n1` (mixture of isomers) [Compound 199, (2-((R/S)-(1-(4-(5-((1S,2S)-2-fluorocyclopropane-1-carboxamido)benzo[d]oxazol-2-yl)picolinoyl)piperidin-4-yl)(phenyl)methyl)-2H-tetrazol-5-yl)methyl acetate], the EC50 is 1.8 nM. On to `[2H]C([2H])([2H])C(C(=O)Nc1ccc2oc(-c3ccnc(C(=O)N4CCC(C(c5ccccc5)n5nnc(C)n5)CC4)c3)nc2c1)C([2H])([2H])[2H]` (racemic) [Compound 132, 3,3,3-trideuterio-N-[2-[2-[4-[(R/S)-(5-methyltetrazol-2-yl)-phenyl-methyl]piperidine-1-carbonyl]-4-pyridyl]-1,3-benzoxazol-5-yl]-2-(trideuteriomethyl)propanamide], for which the EC50 turned out to be 4 nM.

With `Cc1cn(-c2ccc3oc(-c4ccnc(C(=O)N5CCC(C(c6ccccc6)n6nnc(C)n6)CC5)c4)nc3c2)cn1` (racemic) [Compound 189, (R/S)-(4-(5-(4-methyl-1H-imidazol-1-yl)benzo[d]oxazol-2-yl)pyridin-2-yl)(4-((5-methyl-2H-tetrazol-2-yl)(phenyl)methyl)piperidin-1-yl)methanone], the EC50 turned out to be 11 nM. In the case of `Cc1nnn([C@@H](c2ccsc2)C2CCN(C(=O)c3cc(-c4nc5cc(NC(=O)[C@@H]6C[C@@H]6F)ccc5o4)ccn3)CC2)n1` [Compound 203, (1S,2S)-2-fluoro-N-(2-(2-(4-((R)-(5-methyl-2H-tetrazol-2-yl)(thiophen-3-yl)methyl)piperidine-1-carbonyl)pyridin-4-yl)benzo[d]oxazol-5-yl)cyclopropanecarboxamide], the EC50 turned out to be 19 nM.

`O=C(c1cc(-c2nc3cc(-c4cnn(C5CC5)c4)ccc3o2)ccn1)N1CCN(C(c2ccccc2)c2nnn(C(F)F)n2)CC1` (racemic) [Compound 148, (R/S)-(4-(5-(1-cyclopropyl-1H-pyrazol-4-yl)benzo[d]oxazol-2-yl)pyridin-2-yl)(4-((2-(difluoromethyl)-2H-tetrazol-5-yl)(phenyl)methyl)piperazin-1-yl)methanone]: the EC50 came to 33 nM. The same measure for `O=C(Nc1ccc2oc(-c3ccnc(C(=O)N4CCN(C(c5ccccc5)c5nnn(CF)n5)CC4)c3)nc2c1)[C@@H]1C[C@@H]1F` (mixture of isomers) [Compound 150, (1S,2S)-2-fluoro-N-(2-(2-(4-((S/R)-(2-(fluoromethyl)-2H-tetrazol-5-yl)(phenyl)methyl)piperazine-1-carbonyl)pyridin-4-yl)benzo[d]oxazol-5-yl)cyclopropane-1-carboxamide]: 8 nM; for `Cc1nnn(C(c2ccc(F)cc2)C2CCN(C(=O)c3cc(-c4nc5cc(NC(=O)[C@@H]6C[C@@H]6F)ccc5o4)ccn3)CC2)n1` (single isomer, unassigned) [Compound 202]: 2.6 nM. The same measure for `O=C(c1cc(-c2nc3cc(-c4ccns4)ccc3o2)ccn1)N1CCN(C(c2ccccc2)c2nnn(C(F)F)n2)CC1` (racemic) [Compound 115, (R/S)-(4-((2-(difluoromethyl)-2H-tetrazol-5-yl)(phenyl)methyl)piperazin-1-yl)(4-(5-(isothiazol-5-yl)benzo[d]oxazol-2-yl)pyridin-2-yl)methanone]: 64 nM; for `[2H]C([2H])([2H])n1nnc(C(c2ccccc2)N2CCN(C(=O)c3cc(-c4nc5cc(NC(=O)[C@@H]6C[C@@H]6F)ccc5o4)ccn3)CC2)n1` (stereo partly drawn) [Compound 178, (1S,2S)-2-fluoro-N-(2-(2-(4-((R)-(2-Deuteratedmethyl-2H-tetrazol-5-yl)(phenyl)methyl)piperazine-1-carbonyl)pyridin-4-yl)benzo[d]oxazol-5-yl)cyclopropanecarboxamide]: 7 nM; for `Cc1nnn(C(c2ccccc2)C2CCN(C(=O)c3cc(-c4nc5ccc(NC(=O)[C@@H]6C[C@@H]6F)cc5o4)ccn3)CC2)n1` (single isomer, unassigned) [Compound 134]: 4 nM. With `Cc1nnn(C(c2ccccc2)C2CCN(C(=O)c3cc(-c4cc5cc(NC(=O)C(C)(C)F)ccc5o4)ccn3)CC2)n1` (racemic) [Compound 142, (R/S)-2-fluoro-2-methyl-N-(2-(2-(4-((5-methyl-2H-tetrazol-2-yl)(phenyl)methyl)piperidine-1-carbonyl)pyridin-4-yl)benzofuran-5-yl)propanamide], the EC50 is 23 nM.
